Data set [1] addresses T1, unphosphorylated VEGF-R2Δ50 (FLVK) (Homo sapiens, UniProt P35968, DEL940-989/E990V).
T1 construct: VEGF-R2Δ50 contains residues 806-939 and 990-1171; made in house; host or cells: baculovirus/insect cells
In words: VEGF-R2 coupled spectrophotometric assay, unphosphorylated construct (FLVK).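 As to all read-outs here: Baculovirus-expressed cytosolic kinase domain, ADP formation linked via pyruvate kinase and lactate dehydrogenase to NADH oxidation, read as falling absorbance at 340 nm.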 The class given is biochemical. Particulars: for inhibition at 0.05 µM: @ 50 nM, read-out: FLVK percent inhibition.

The test system of data set [2] is human umbilical vein endothelial cells (HUVEC). Briefly: HUVEC proliferation assay (VEGF-stimulated, MTT). The class given is cell-based. The following applies: Homo sapiens. Put shortly: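 Exponentially growing HUVEC (passage 3-4) were serum-starved 24 h in F12K + 1% FBS, given test compound (final DMSO 0.1%), then stimulated 1 h later with VEGF at 6 ng/ml final. Proliferation read after 72 h by 4 h MTT dye reduction, absorbance at 595.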

The subject of data set [3] is lung cancer cells (line MV522). Briefly: Cancer cell proliferation (MV522) assay (MTT). Format: cell-based. As to the method:
The protocol for assessing cellular proliferation in cancer cells is similar to that used for assessments in HUVEC cells. Two thousand lung cancer cells (line MV522, acquired from American Tissue Cultural Collection) were seeded in growth media (RPMI1640 medium supplemented with 2 mM glutamine and 10% FBS). Cells are allowed to attach for 1 day prior to addition of test agents and/or vehicles. Cells are treated simultaneously with the same test agents used in the HUVEC assay. Cellular proliferation is quantified by MTT dye reduction assay 72 hours after exposure to test agents. The total length of the assay is 4 days vs. 5 for HUVEC cells because MV522 cells are not exposed to starvation medium.

For data set [4], the target named is T2, FGF-R1 intracellular kinase domain (Homo sapiens, UniProt P11362, C488A/C584S/L457V).
T2 construct: starting from the endogenous methionine residue 456 to glutamate 766; made in house; host or cells: baculovirus expression system
T2 sequence (P11362 456-766 L457V/C488A/C584S): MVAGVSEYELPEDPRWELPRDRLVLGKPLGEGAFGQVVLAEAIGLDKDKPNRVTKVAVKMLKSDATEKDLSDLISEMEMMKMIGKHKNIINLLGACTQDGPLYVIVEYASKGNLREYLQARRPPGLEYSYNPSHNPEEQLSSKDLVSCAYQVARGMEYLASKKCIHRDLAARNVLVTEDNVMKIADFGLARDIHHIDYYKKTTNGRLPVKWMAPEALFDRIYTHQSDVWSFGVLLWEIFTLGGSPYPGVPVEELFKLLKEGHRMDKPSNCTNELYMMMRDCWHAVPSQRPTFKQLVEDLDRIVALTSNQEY
Briefly: FGF-R spectrophotometric assay.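 As to all read-outs here: coupled PK/LDH enzyme assay: ADP from kinase phosphoryl transfer drives NADH oxidation, read as absorbance decrease at 340 nm, with 2 mM ATP and poly(E4Y1) substrate.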 The following applies: for inhibition at 1 µM: read-out: FGF-P percent inhibition. Format: biochemical.
Excerpt: The intracellular kinase domain of human FGF-R1 was expressed using the baculovirus vector expression system starting from the endogenous methionine residue 456 to glutamate 766, according to the residue numbering system of Mohammadi et al., Mol. Cell.
The production of ADP from ATP that accompanies phosphoryl transfer was coupled to oxidation of NADH using phosphoenolpyruvate (PEP) and a system having pyruvate kinase (PK) and lactic dehydrogenase (LDH). The oxidation of NADH was monitored by following the decrease of absorbance at 340 nm (e340=6.22 cm^−1 mM^−1) using a Beckman DU 650 spectrophotometer. […] Assays were initiated with 5 to 40 nM of enzyme. Ki values were determined by measuring enzyme activity in the presence of varying concentrations of test compounds. The data were analyzed using Enzyme Kinetic and Kaleidagraph software.
The spectrophotometric assay was carried out as described above for VEGF-R2, except for the following changes in concentration: FGF-R=50 nM, ATP=2 mM, and poly(E4Y1)=15 mM.

The target of a further data set is T3, LCK tyrosine kinase (Homo sapiens, UniProt P06239, C224D/P223M).
T3 construct: starting from amino acid residue 223 to the end of the protein at residue 509; made in house; host or cells: insect cells
T3 sequence (P06239 223-509 P223M/C224D): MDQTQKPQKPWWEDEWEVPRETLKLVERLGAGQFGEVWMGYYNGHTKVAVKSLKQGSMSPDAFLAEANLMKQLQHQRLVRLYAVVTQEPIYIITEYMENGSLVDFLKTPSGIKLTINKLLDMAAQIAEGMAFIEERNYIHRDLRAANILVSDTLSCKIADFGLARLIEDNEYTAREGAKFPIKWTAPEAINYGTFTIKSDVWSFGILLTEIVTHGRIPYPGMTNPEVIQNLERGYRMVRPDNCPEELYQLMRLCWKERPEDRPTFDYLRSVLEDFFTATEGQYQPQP
In words: LCK spectrophotometric assay.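 Also: recombinant LCK kinase activity on poly(E4Y1), ADP formation coupled through PK/LDH to NADH oxidation, followed as absorbance loss at 340 nm.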 Particulars: read-out: LCK-P percent inhibition. Format: biochemical.

The target in data set [5] is T4, phosphorylated VEGF-R2Δ50 (FLVK-P) (Homo sapiens, UniProt P35968, DEL940-989/E990V).
T4 construct: VEGF-R2Δ50 contains residues 806-939 and 990-1171; made in house; host or cells: baculovirus/insect cells
T4 sequence (P35968 with tags, fused parts or gaps DEL940-989/E990V limits assumed): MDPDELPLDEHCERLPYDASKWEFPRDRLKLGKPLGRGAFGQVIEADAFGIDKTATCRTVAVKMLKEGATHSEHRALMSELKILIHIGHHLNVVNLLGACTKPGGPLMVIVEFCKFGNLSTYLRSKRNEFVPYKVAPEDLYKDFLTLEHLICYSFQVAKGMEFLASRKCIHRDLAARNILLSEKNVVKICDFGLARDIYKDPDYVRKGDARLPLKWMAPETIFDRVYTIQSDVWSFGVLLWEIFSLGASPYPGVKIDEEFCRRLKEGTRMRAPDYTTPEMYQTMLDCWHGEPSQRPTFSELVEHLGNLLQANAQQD
In words: VEGF-R2 coupled spectrophotometric assay, phosphorylated construct (FLVK-P). The class given is biochemical. An outline of the steps: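 Baculovirus-expressed VEGF-R2Δ50 (residues 806-939/990-1171, E990V), optionally autophosphorylated; ADP formation coupled via PK/LDH to NADH oxidation at 340 nm, pH 7.5 Hepes. FLVK-P: 1 mM ATP, 5.1 mM poly(E4Y1), 25 mM MgCl2; FLVK: 3 mM ATP, 20 mM poly(E4Y1), 60 mM MgCl2, 2 mM MnCl2. Ki from activity over compound concentrations.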

The mark [6] stands for this setting: unphosphorylated VEGF-R2 construct.
[7] abbreviates: VEGF-stimulated HUVEC proliferation, read-out: HUVEC IC50.
The mark [8] stands for this setting: HUVEC proliferation with albumin, read-out: Huvec + Albumin IC50.

Structures are written as SMILES. Where a name gives a salt, the structure may show the parent alone. Read-outs that look alike come from different tables or passages of the source. Where only a bound is given, the exact number is not on record here.

T1 sequence (P35968 with tags, fused parts or gaps DEL940-989/E990V limits assumed): as above
Description for LCK tyrosine kinase: The production of ADP from ATP that accompanies phosphoryl transfer was coupled to oxidation of NADH using phosphoenolpyruvate (PEP) and a system having pyruvate kinase (PK) and lactic dehydrogenase (LDH). The oxidation of NADH was monitored by following the decrease of absorbance at 340 nm (e340=6.22 cm^−1 mM^−1) using a Beckman DU 650 spectrophotometer. Assay conditions for phosphorylated VEGF-R2Δ50 (indicated as FLVK-P in the tables below) were the following: 1 mM PEP; 250 μM NADH; 50 units of LDH/mL; 20 units of PK/mL; 5 mM DTT; 5.1 mM poly(E4Y1); 1 mM ATP; and 25 mM MgCl2 in 200 mM Hepes, pH 7.5. Assay conditions for unphosphorylated VEGF-R2Δ50 (indicated as FLVK in the tables) were the following: 1 mM PEP; 250 μM NADH; 50 units of LDH/mL; 20 units of PK/mL; 5 mM DTT; 20 mM poly(E4Y1); 3 mM ATP; and 60 mM MgCl2 and 2 mM MnCl2 in 200 mM Hepes, pH 7.5. Assays were initiated with 5 to 40 nM of enzyme. Ki values were determined by measuring enzyme activity in the presence of varying concentrations of test compounds. The data were analyzed using Enzyme Kinetic and Kaleidagraph software.

As usually defined, the Ki is a measure of affinity in units of concentration, obtained from inhibition or displacement. As usually defined, the IC50 is the concentration that gives 50% inhibition. One may read the melting point as the temperature, or range, at which the solid turns liquid. Compound `O=C(Nc1ccc(N2CCOCC2)c(C(F)(F)F)c1)c1ccc(F)c(OCc2cnc3ccccc3c2)c1` [Example R-16, 4-Fluoro-N-(4-morpholin-4-yl-3-trifluoromethyl-phenyl)-3-(quinolin-3-ylmethoxy)-benzamide] showed a melting point of 81 to 84 °C. In data set [1], this compound displayed a Ki of 2.3 nM. Also, the IC50 in data set [2] (HUVEC, read-out: HUVEC IC50) came out at 13 nM. In data set [3] (MV522), this compound displayed an IC50 of 5600 nM.
One may read the inhibition as the drop in the measured response relative to a control, in per cent. For `COc1cc(NC(=O)c2ccc(F)c(OCc3cc(Nc4ccc(OC)nc4)n[nH]3)c2)cc(C(F)(F)F)c1` [Example J-3, 4-Fluoro-3-[5-(6-methoxypyridin-3-yl)amino-2H-pyrazol-3-yl]methoxy-N-(3-methoxy-5-trifluoromethyl-phenyl)-benzamide], affinity in data set [1] was put at a Ki of 0.92 nM. Further, the results for the inhibition at 1 µM (in data set [4]; at LCK tyrosine kinase) were 54% and 44%, respectively. Moreover, the IC50 in data set [2] (HUVEC, read-out: HUVEC IC50) is 50 nM.
The compound `Cc1cc(NC(=O)c2cccc(CSc3cnccn3)c2)ccc1C(C)C` [Example A-3, N-(4-Isopropyl-3-methylphenyl)-3-[(pyrazin-2-yl)sulfanylmethyl]benzamide] gave a melting point of 69 to 73 °C. The compound also returned a Ki in data set [5] of 32 nM. The compound further had a Ki in data set [1] of 4.5 nM. In data set [2] (HUVEC, read-out: HUVEC IC50), the IC50 was 240 nM. The IC50 in data set [3] (MV522) is more than 10000 nM.
Compound `CC(=O)Oc1ccc(C(=O)Nc2cccc(OCc3cncc4ccccc34)c2)cc1C(C)(C)C` [Example X-3, 4-Acetoxy-3-t-butyl-N-[3-(isoquinolin-4-ylmethoxy)phenyl]-benzamide] displayed a melting point of 83 to 86 °C. The same compound showed a Ki in data set [1] (setting [6]) of 2.2 nM. For the same compound, in data set [2] (setting [7]), the IC50 lay in the range of 30 to 100 nM. The same compound returned an IC50 in data set [3] (MV522 lung cancer cells) of 4600 nM.
In the case of `CN1CCN(c2ccc(NC(=O)c3ccc(F)c(OCc4cccnc4)c3)cc2C(F)(F)F)CC1` [Example R-20], the melting point lay within 61 to 66 °C. Further, in data set [1], the inhibition at 0.05 µM was determined as 19%. For the same compound, the IC50 in data set [2] (HUVEC, read-out: HUVEC IC50) amounted to 155 nM. In data set [3] (MV522), the IC50 was found to be 2600 nM.
The compound `O=C(Nc1ccc(N2CCNCC2)c(C(F)(F)F)c1)c1ccc(F)c(OCc2cncc(-c3ccco3)c2)c1` [EE-1, 4-Fluoro-3-(5-furan-2-yl-pyridin-3-ylmethoxy)-N-(4-piperazin-1-yl-3-trifluoromethyl-phenyl)-benzamide dihydrochloride] showed a Ki in data set [1] (setting [6]) of 3.4 nM. The inhibition at 1 µM worked out at 32% in data set [4] and 53% at LCK tyrosine kinase. Besides, in data set [2] (setting [8]), the half-inhibitory concentration (IC50) worked out at 180 nM.
In data set [1] (setting [6]), `COc1ccc(Nc2cc(CSc3cccc(NC(=O)c4ccc(O)c(C(C)(C)C)c4)c3)[nH]n2)cn1` [Example W-1, 3-t-Butyl-4-hydroxy-N-{3-[5-(6-methoxy-pyridin-3-ylamino)-2 H-pyrazol-3-ylmethylsulfanyl]-phenyl}-benzamide] came in with a Ki of 0.12 nM. For the same compound, the figures for the inhibition at 1 µM (in data set [4]; at LCK tyrosine kinase) were 67% and 88%, respectively. In addition, the IC50 in data set [2] (setting [7]) worked out at 23 nM.
Consider `Cc1ccc(C(=O)Nc2ccc(C(C)C)c(C)c2)cc1OCc1cncc2ccccc12` [Example K-11, N-(4-Isopropyl-3-methyl-phenyl)-4-methyl-3-(Isoquinolin-4-yl)methoxy-benzamide], for which, in data set [5], the Ki was found to be 3.49 nM. The values for the inhibition at 1 µM (in data set [4]; on LCK tyrosine kinase) were 59% and 82%, respectively. In addition, the IC50 in data set [2] (HUVEC, read-out: HUVEC IC50) came to 37 nM; in data set [3] (MV522), 8100 nM.
As to `Cc1cc(NC(=O)c2cccc(CCc3cccnc3)c2)ccc1C(C)C` [Example U-2, N-(4-Isopropyl-3-methyl-phenyl)-3-(2-pyridin-3-yl-ethyl)-benzamide], the melting point fell in the range of 143 to 144 °C. The compound also returned a Ki in data set [5] of 12.4 nM. In addition, the IC50 in data set [2] (HUVEC, read-out: HUVEC IC50) turned out to be 100 nM. The same compound returned an IC50 in data set [3] (MV522) of more than 10000 nM.
With `C/C=C/c1cc(COc2cc(C(=O)Nc3ccc(N4CCCC4)c(C(F)(F)F)c3)ccc2F)[nH]n1` [Example F-4, 4-Fluoro-3-[{5-((E)-1-propenyl)-2H-pyrazol-3-yl}methoxy]-N-[4-(pyrrolidin-1-yl)-3-trifluoromethylphenyl]benzamide], the results for the inhibition at 1 µM (in data set [4]; at LCK tyrosine kinase) were 18% and 19%, respectively. Further, the IC50 in data set [2] (HUVEC, read-out: HUVEC IC50) stood at 63 nM; in data set [3] (MV522) it was 2600 nM.
Regarding `CC(=O)Nc1ccc(CCc2cccc(C(=O)Nc3ccc(N4CCNCC4)c(C(F)(F)F)c3)c2)cn1` [AA-1, 3-[2-(6-Acetylamino-pyridin-3-yl)-ethyl]-N-(4-piperazin-1-yl-3-trifluoromethylphenyl)-benzamide dihydrochloride], in data set [5] (@ 50 nM, read-out: FLVK-P percent inhibition), the inhibition at 0.05 µM came to 59%. For the same compound, the Ki in data set [1] (setting [6]) stood at 2.8 nM. For the same compound, the inhibition at 1 µM in data set [4] worked out at 39%; at LCK tyrosine kinase, 44%. For the same compound, in data set [2] (setting [8]), the IC50 is 25 nM.
As to `COc1cc(NC(=O)c2cccc(CSc3ncnc4[nH]ncc34)c2)cc(OC)c1OC` [Example B-1, N-(3,4,5-Trimethoxyphenyl)-3-[(1H-pyrazolo[3,4-d]pyrimidin-4-yl)sulfanylmethyl]benzamide], the results for the Ki in data set [5], in data set [1] and in data set [4] (read-out: FGF-P Ki) were 111 nM, 25 nM and 87000 nM, respectively.
The compound `Cc1cc(NC(=O)c2cccc(CSc3ncnc4[nH]ncc34)c2)ccc1C(C)C` [Example A-5, N-(4-Isopropyl-3-methylphenyl)-3-[(1H-pyrazolo[3,4-d]pyrimidin-4-yl)sulfanylmethyl]benzamide] had a melting point of 187 to 189 °C. In data set [5], this compound yielded a Ki of 8.64 nM. In data set [1], this compound had a Ki of 1 nM. Also, the inhibition at 5 µM at LCK tyrosine kinase (@ 5 μM) came to 37%. Further, in data set [2] (HUVEC, read-out: HUVEC IC50), the IC50 amounted to 270 nM. In data set [3] (MV522), this compound registered an IC50 of more than 10000 nM.
With `O=C(Nc1cc(Cl)c(N2CCNCC2)c(Cl)c1)c1ccc(F)c(OCc2cccnc2)c1` [Example R-19, N-(3,5-Dichloro-4-piperazin-1-yl-phenyl)-4-fluoro-3-(pyridin-3-ylmethoxy)-benzamide], the melting point lay in the range of 81 to 85 °C. The affinity in data set [1] corresponds to a Ki of 13.9 nM. Moreover, in data set [2] (HUVEC, read-out: HUVEC IC50), the half-maximal inhibitory concentration (IC50) was 64 nM. For the same compound, half-maximal inhibition in data set [3] (MV522) (IC50) required 1700 nM.
For `Cc1ccc2cc(NC(=O)c3cccc(CCc4cc(Nc5ccccc5)n[nH]4)c3)ccc2n1` [Example G-2, N-(2-Methylquinolin-6-yl)-3-[2-(5-phenylamino-2H-pyrazol-3-yl)ethyl]benzamide], the melting point lay within 98 to 102 °C. In data set [5], the Ki is 1.78 nM. Besides, the IC50 in data set [2] (HUVEC, read-out: HUVEC IC50) was 120 nM. Further, in data set [3] (MV522), the IC50 is more than 10000 nM.
Compound `COc1ccc(Nc2cc(COc3cc(C(=O)Nc4ccc(-n5ccnc5)c(C(F)(F)F)c4)ccc3F)[nH]n2)cn1` [Example J-1, 4-Fluoro-N-[4-(imidazol-1-yl)-3-trifluoromethylphenyl]-3-[5-(6-methoxypyridin-3-yl)amino-2H-pyrazol-3-ylmethoxy]-benzamide] displayed a Ki in data set [1] of 1.6 nM. Besides, the inhibition at 1 µM in data set [4] was found to be 61%; on LCK tyrosine kinase, 38%. Also, the IC50 in data set [2] (HUVEC, read-out: HUVEC IC50) was 37 nM.
In the case of `O=C(Nc1ccc(-n2cccn2)c(C(F)(F)F)c1)c1ccc(F)c(OCc2cccnc2)c1` [Example R-22, 4-Fluoro-N-(4-pyrazol-1-yl-3-trifluoromethyl-phenyl)-3-(pyridin-3-ylmethoxy)-benzamide], the inhibition at 0.05 µM in data set [1] was 52%. Further, the inhibition at 1 µM in data set [4] is 21%; on LCK tyrosine kinase, 13%. Moreover, the IC50 in data set [2] (HUVEC, with albumin, read-out: Huvec + Albumin IC50) is more than 100 nM.
Consider `O=C(Nc1cc(Cl)c(N2CCOCC2)c(Cl)c1)c1ccc(F)c(OCc2cccnc2)c1` [Example R-18, N-(3,5-Dichloro-4-morpholin-4-yl-phenyl)-4-fluoro-3-(pyridin-3-ylmethoxy)-benzamide], for which the melting point lay in the range of 209 to 211 °C. In addition, affinity in data set [1] was put at a Ki of 3.1 nM. Besides, in data set [2] (HUVEC, read-out: HUVEC IC50), the IC50 came to 18 nM. The same compound displayed an IC50 in data set [3] (MV522) of more than 10000 nM.
For the compound `CC(=O)Nc1ccc(COc2cccc(C(=O)Nc3ccc(C(C)C)c(C)c3)c2)cn1` [Example N-2, 3-(6-Acetylaminopyridin-3-yl)methoxy-N-(4-Isopropyl-3-methyl-phenyl)-benzamide], the melting point lay in the range of 98 to 101 °C. Moreover, the inhibition at 0.05 µM in data set [1] came to 8%. Moreover, in data set [2] (HUVEC, read-out: HUVEC IC50), the IC50 is more than 100 nM. In addition, the IC50 in data set [3] (MV522) is more than 10000 nM.

The values above are taken from patent publication US6635641B2 (Agouron Pharmaceuticals, Inc., priority 2000, dated 2003).
